The results in this text go back to ChEMBL document CHEMBL1201862, “PubChem BioAssay data set” (2004).

The structures appear in SMILES notation.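 Cultured in 96-well plates, cells were exposed to test compound for 48 hours across five concentrations. GI50: concentration for 50% inhibition of growth.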 The source made the active and inactive calls. Cut-off read from the data, not from the text of the source: active = GI50 up to about 1.1 µM and inactive = higher.

Assay in all cases: NCI anticancer screen, dose series, 48 h
The subject of assay [1] is OVCAR-4.
Assay [2] relates to OVCAR-8.
In assay [3] the test system is IGROV-1.
Assay [4] deals with SN12C.
For assay [5], the system named is UACC-257.
Assay [6] concerns BT-549.
Assay [7] deals with T47D.
Assay [8] relates to UO-31.
For assay [9], the system named is M14.
The test system of assay [10] is HOP-92.
In assay [11] the test system is RPMI-8226.
Assay [12] has as its system NCI/ADR-RES.
Assay [13] deals with HCT-15.
The subject of assay [14] is HOP-62.
Assay [15] concerns SK-MEL-28.
In assay [16] the test system is MCF7.
The test system of assay [17] is SF-268.
The test system of assay [18] is HCT-116.
Assay [19] concerns MDA-MB-231.
The test system of assay [20] is SR.

Consider `C=CCN(c1cc(O)c2c(c(C)cn2S(=O)(=O)c2ccccc2)c1[N+](=O)[O-])S(C)(=O)=O`, for which the GI50 in assay [1] was > 100 µM (inactive); in assay [2], > 100 µM (inactive); in assay [3], > 100 µM (inactive); in assay [4], 78.9 µM (inactive); in [5], > 100 µM (inactive); in assay [6] it was > 100 µM (inactive). The GI50 is 40.7 µM (inactive) in [7]; > 100 µM (inactive) in assay [8]; > 100 µM (inactive) in assay [9]; > 100 µM (inactive) in assay [10]; 61.2 µM (inactive) in [11]; > 100 µM (inactive) in [12]. For the same molecule, the GI50 in assay [13] is more than 100 µM; in assay [14], > 100 µM (inactive); in assay [15], > 100 µM (inactive); in [16], > 100 µM (inactive); in [17] it was > 100 µM (inactive); in [18] it was 59.2 µM (inactive). Also, the GI50 in assay [19] was > 100 µM (inactive).
As to `CCCCC(/C=C\COC1CCCCO1)=C/C(=O)OCC` (centres undefined), the GI50 was 61.2 µM (inactive) in assay [1]; 94.4 µM (inactive) in assay [2]; 61.2 µM (inactive) in assay [3]; 57.4 µM (inactive) in [4]; > 100 µM (inactive) in [5]; > 100 µM (inactive) in [6]. Besides, the GI50 in [7] is 55.3 µM (inactive); in assay [8] it was > 100 µM (inactive); in [9], 91.6 µM (inactive); in assay [11], 25.9 µM (inactive); in assay [12] it was > 100 µM (inactive); in [13], more than 100 µM. The GI50 in assay [20] was 32.6 µM (inactive); in [14], > 100 µM (inactive); in assay [15], > 100 µM (inactive); in [16], 46.9 µM (inactive); in assay [17], > 100 µM (inactive); in assay [18] it was 28.6 µM (inactive). Also, the GI50 in [19] was > 100 µM (inactive).
`O/N=C1/Nc2cc(Cl)ccc2C(=S)N2CSCC12` (centres undefined): the GI50 in assay [1], in assay [2], in assay [3], in assay [4], in assay [5] and in assay [6] was > 100 µM (inactive) throughout. Also, the GI50 in assay [7] is > 100 µM (inactive); in assay [8], > 100 µM (inactive); in [9], > 100 µM (inactive); in assay [11], > 100 µM (inactive); in assay [12], > 100 µM (inactive); in [13], more than 100 µM. For the same molecule, the GI50 in assay [20], in [14], in assay [15], in [16], in assay [17] and in [18] was > 100 µM (inactive) each time. Besides, the GI50 in assay [19] is > 100 µM (inactive).
`CSc1s[s+]c(SC)c1-c1ccccc1`: the GI50 in assay [1] is 0.329 µM (active); in assay [2], 15.7 µM (inactive); in assay [3], 17.6 µM (inactive); in [4] it was 16.3 µM (inactive); in assay [5], 14.4 µM (inactive); in assay [6], 13.9 µM (inactive). Moreover, the GI50 in assay [7] was 32.6 µM (inactive); in assay [8], 18.4 µM (inactive); in assay [9] it was 16.5 µM (inactive); in [10], 13.2 µM (inactive); in assay [11] it was 19.8 µM (inactive); in [12], 18.7 µM (inactive). Also, the GI50 in [13] is 16.4 µM; in assay [14], 14.6 µM (inactive); in assay [16], 17 µM (inactive); in assay [17] it was 18.2 µM (inactive); in assay [18], 15.4 µM (inactive); in [19], 12.2 µM (inactive).
Regarding `O=C(O)c1ccc(C=C2Sc3ccccc3S2)cc1`, the GI50 was 55.3 µM (inactive) in assay [1]; > 100 µM (inactive) in [2]; 82.8 µM (inactive) in assay [3]; 65.9 µM (inactive) in [4]; 54.5 µM (inactive) in assay [5]; 62.7 µM (inactive) in assay [6]. The GI50 in assay [7] is 45 µM (inactive); in [8] it was 63.8 µM (inactive); in [9] it was 44.8 µM (inactive); in [10] it was 64.4 µM (inactive); in assay [11], 63.7 µM (inactive); in assay [12] it was 59.3 µM (inactive). Moreover, the GI50 in assay [13] was 37.2 µM; in assay [14], 81.5 µM (inactive); in assay [16], 35 µM (inactive); in [17], 52.6 µM (inactive); in assay [18], 48.1 µM (inactive); in assay [19], > 100 µM (inactive).
Consider `C=C[C@]1(C)CC[C@]2(C)C(CC[C@@]3(C)C2C[C@H](O)[C@H](O)[C@@]3(C)O)C1` (some centres undefined), for which the GI50 in assay [2], in [3], in [4], in assay [5], in assay [6] and in assay [7] was > 100 µM (inactive) in each case. In addition, the GI50 in [8] was > 100 µM (inactive); in assay [9] it was > 100 µM (inactive); in assay [11], > 100 µM (inactive); in assay [12], > 100 µM (inactive); in assay [13] it was more than 100 µM; in assay [20], > 100 µM (inactive). The GI50 in assay [14], in assay [15], in assay [16], in assay [17], in [18] and in assay [19] was > 100 µM (inactive) each time.
For `N#CC(C#N)=C1CCCCc2ccc([N+](=O)[O-])cc21`, the GI50 in assay [1] is > 100 µM (inactive); in assay [2] it was > 100 µM (inactive); in [3], > 100 µM (inactive); in assay [4] it was 52.6 µM (inactive); in assay [5], > 100 µM (inactive); in assay [6] it was > 100 µM (inactive). Also, the GI50 is 46.3 µM (inactive) in assay [7]; 92.9 µM (inactive) in assay [8]; > 100 µM (inactive) in assay [9]; > 100 µM (inactive) in [10]; 31.2 µM (inactive) in [11]; > 100 µM (inactive) in assay [12]. The GI50 in assay [13] was 63.7 µM; in assay [14], > 100 µM (inactive); in assay [15], > 100 µM (inactive); in assay [16], 38.7 µM (inactive); in assay [17] it was > 100 µM (inactive); in [18] it was 24.3 µM (inactive). Moreover, the GI50 in [19] was > 100 µM (inactive).
Turning to `CC1(C)C2CCC(CN)(C2)C1N` (centres undefined), the GI50 in assay [1] is > 100 µM (inactive); in assay [2], > 100 µM (inactive); in [3], > 100 µM (inactive); in [4] it was > 100 µM (inactive); in [5] it was 14.8 µM (inactive); in assay [6], > 100 µM (inactive). In addition, the GI50 in assay [7], in [8], in [9], in [10], in [11] and in assay [12] was > 100 µM (inactive) throughout. For the same molecule, the GI50 in [13] was more than 100 µM; in assay [14] it was > 100 µM (inactive); in assay [15], > 100 µM (inactive); in assay [16] it was > 100 µM (inactive); in assay [17], > 100 µM (inactive); in assay [18], > 100 µM (inactive). Further, the GI50 in assay [19] is > 100 µM (inactive).
As for `CC(C)(C)OC(=O)N/C(C=O)=C\C1CCCCC1`, the GI50 in [1] is 23.1 µM (inactive); in assay [2], 16.3 µM (inactive); in assay [3], 20.7 µM (inactive); in [4], 19.3 µM (inactive); in assay [5], 20.4 µM (inactive); in [6], 25.2 µM (inactive). Further, the GI50 in [7] is 24.6 µM (inactive); in assay [8], 16.5 µM (inactive); in [9] it was 16.2 µM (inactive); in [12], 18.3 µM (inactive); in [13], 18.8 µM; in [20], 17.3 µM (inactive). Besides, the GI50 in assay [14] is 21 µM (inactive); in [15] it was 46.6 µM (inactive); in assay [16], 25.6 µM (inactive); in [17] it was 17.4 µM (inactive); in assay [18], 16.3 µM (inactive); in assay [19] it was 19.5 µM (inactive).
In the case of `COC(=O)[C@H](Cc1ccccc1)NC(=O)N(CCN(CCC#N)C(=O)N[C@H](C(=O)OC)C(C)C)c1ccccc1`, the GI50 in assay [1] was 53.3 µM (inactive); in [2] it was > 100 µM (inactive); in [3] it was 57.5 µM (inactive); in assay [4] it was > 100 µM (inactive); in assay [5], 32.1 µM (inactive); in [6] it was > 100 µM (inactive). Besides, the GI50 in assay [7] is 49.4 µM (inactive); in assay [8] it was > 100 µM (inactive); in [9], > 100 µM (inactive); in assay [10], 22.8 µM (inactive); in assay [11], 33.2 µM (inactive); in assay [12], > 100 µM (inactive). Further, the GI50 is more than 100 µM in [13]; > 100 µM (inactive) in assay [14]; > 100 µM (inactive) in [15]; > 100 µM (inactive) in assay [16]; > 100 µM (inactive) in assay [17]; > 100 µM (inactive) in [18]. Besides, in [19], the GI50 is > 100 µM (inactive).
As to `CC(=O)c1ccc(/N=N/N2CCCC2)cc1`, the GI50 in [1], in assay [2], in assay [3], in [4], in [5] and in assay [6] was > 100 µM (inactive) throughout. For the same molecule, the GI50 in assay [7] is > 100 µM (inactive); in [8], > 100 µM (inactive); in [9], > 100 µM (inactive); in [10], > 100 µM (inactive); in [12], > 100 µM (inactive); in assay [13] it was more than 100 µM. The GI50 in assay [20], in assay [14], in assay [16], in assay [17], in assay [18] and in [19] was > 100 µM (inactive) each time.
